Reference: ChEMBL document CHEMBL5370591, “A Potent and Narrow-Spectrum Antibacterial against Clostridioides difficile Infection” (J Med Chem, 2023)
Values after ≈ are worked out from the molar mass of the structure shown.

Tests used:
Clostridioides difficile = assay: Antibacterial activity against Clostridium difficile ATCC 43255 measured after 48 hrs by two fold serial dilution method; type: functional
[1] = Selectivity ratio of IC50 for human THP-1 cells to MIC for Clostridium difficile ATCC 43255; type: toxicity
THP-1 = assay: Cytotoxicity against human THP-1 cells assessed as increase in LDH release incubate for 24 hrs by trypan-blue staining based analysis; type: functional, cell-based; details: THP-1, 24 h

Structure (SMILES) | MIC (Clostridioides difficile) | selectivity ratio [1] | IC50 (THP-1)
Oc1ccc(-c2nc(-c3ccc(Oc4ccc(C(F)(F)F)cc4)cc3)no2)cc1F | 4 µg/mL (≈ 9.61 µM) | 1 | 5.2 µg/mL (≈ 12.5 µM)
O=[N+]([O-])c1c[nH]nc1-c1nc(-c2ccc3oc4ccccc4c3c2)no1 | 4 µg/mL (≈ 11.5 µM) | 2 | –
O=[N+]([O-])c1ccccc1Oc1ccc(-c2noc(-c3ccc(O)cc3)n2)cc1 | 4 µg/mL (≈ 10.7 µM) | 3 | 16 µg/mL (≈ 42.6 µM)
O=[N+]([O-])c1c[nH]nc1-c1nc(-c2ccc(OC(F)(F)F)cc2)no1 | 4 µg/mL (≈ 11.7 µM) | 6 | 25 µg/mL (≈ 73.3 µM)
O=[N+]([O-])c1cc(-c2nc(-c3ccc(Oc4ccc(C(F)(F)F)cc4)cc3)no2)cnc1O | 2 µg/mL (≈ 4.5 µM) | 19 | 37 µg/mL (≈ 83.3 µM)
Oc1ccc(-c2nc(-c3ccc(Oc4ccccc4)cc3)no2)cc1 | 2 µg/mL (≈ 6.05 µM) | 8 | 17 µg/mL (≈ 51.5 µM)
Oc1ccc(-c2nc(-c3ccc(Oc4cccc(I)c4)cc3)no2)cc1 | – | 4 | 17 µg/mL (≈ 37.3 µM)
Oc1ccc(-c2nc(-c3ccc(OC4CCCCC4Br)cc3)no2)cc1 (stereo not given) | 2 µg/mL (≈ 4.82 µM) | 4 | 8.4 µg/mL (≈ 20.2 µM)
O=[N+]([O-])c1c[nH]nc1-c1nc(-c2ccc(Oc3ccc(C(F)(F)F)cc3)cc2)no1 | 4 µg/mL (≈ 9.59 µM) | 5 | 21 µg/mL (≈ 50.3 µM)
Oc1ccc(-c2nc(-c3ccc(Oc4ccc(C(F)(F)F)cc4)cc3)no2)cc1 | 2 µg/mL (≈ 5.02 µM) | 9 | 17 µg/mL (≈ 42.7 µM)
Clc1nc(-c2ccc(OC3CCCC3)cc2)no1 | > 128 µg/mL | – | –
COc1ccc(-c2noc(-c3ccc(O)cc3)n2)cc1 | > 128 µg/mL | – | –
Oc1ccc(-c2nc(-c3ccc4[nH]c5ccccc5c4c3)no2)cc1 | > 128 µg/mL | – | –
Oc1ccc(Nc2nc(-c3ccc(OC4CCCC4)cc3)no2)cc1 | 32 µg/mL (≈ 94.8 µM) | – | –
Oc1ccc(-c2nc(-c3ccc(Oc4ccc(I)cc4)cc3)no2)cc1 | 16 µg/mL (≈ 35.1 µM) | – | –
FC(F)(F)c1ccc(Oc2ccc(-c3noc(-c4ccc(Br)cc4)n3)cc2)cc1 | > 128 µg/mL | – | –
FC(F)(F)Oc1ccc(-c2noc(-c3ccc4[nH]ccc4c3)n2)cc1 | > 128 µg/mL | – | –
O=C(Nc1c[nH]nc1-c1nc(-c2ccc(Oc3ccc(C(F)(F)F)cc3)cc2)no1)c1ccccc1 | > 128 µg/mL | – | –
Clc1ccc(N2CCN(c3noc(-c4ccc5[nH]ccc5c4)n3)CC2)cc1Cl | > 128 µg/mL | – | –
Cl.NCCCOc1ccc(-c2noc(-c3ccc(O)cc3)n2)cc1 | 64 µg/mL | – | –
Oc1ccc(-c2nc(-c3ccc4oc5ccc(F)cc5c4c3)no2)cc1 | > 128 µg/mL | – | –
FC(F)(F)c1ccc(Oc2ccc(-c3noc(-c4n[nH]cc4Br)n3)cc2)cc1 | > 128 µg/mL | – | –

Structure (SMILES) | MIC (Clostridioides difficile) | selectivity ratio [1] | IC50 (THP-1)
Oc1ccc(-c2nc(-c3ccc4oc5ccc(C(F)(F)F)cc5c4c3)no2)cc1 | > 128 µg/mL | – | –
Cl.NCc1ccc(-c2nc(-c3ccc(OC4CCCC4)cc3)no2)cc1 | 8 µg/mL | – | –
O=[N+]([O-])c1c[nH]nc1-c1nc(-c2ccc(Oc3ccc(I)cc3)cc2)no1 | 4 µg/mL (≈ 8.42 µM) | 25 | 100 µg/mL (≈ 210 µM)
Cl.NCc1ccc(-c2nc(-c3ccc(Oc4ccc(C(F)(F)F)cc4)cc3)no2)cc1 | 4 µg/mL | 1 | –
Oc1ccc(Cc2nc(-c3ccc(OC4CCCC4)cc3)no2)cc1 | 16 µg/mL (≈ 47.6 µM) | – | –
Oc1ccc(-c2nc(-c3ccc(OC(F)(F)F)cc3)no2)cc1 | 64 µg/mL (≈ 199 µM) | – | –
Oc1ccc(-c2nc(-c3ccc(C(O)C(F)(F)F)cc3)no2)cc1 (stereo not given) | 32 µg/mL (≈ 95.2 µM) | – | –
C#CCOc1ccc(-c2noc(-c3ccc(O)cc3)n2)cc1 | 128 µg/mL (≈ 438 µM) | – | –
c1cc2cc(-c3nc(-c4ccc5c(c4)OCO5)no3)ccc2[nH]1 | > 128 µg/mL | – | –
Oc1ccc(-c2cc(-c3ccc(Oc4ccccc4)cc3)no2)cc1 | > 128 µg/mL | – | –
Oc1ccc(-c2noc(-c3ccc(OC4CCCC4)cc3)n2)cc1 | 4 µg/mL (≈ 12.4 µM) | 2 | 8.5 µg/mL (≈ 26.4 µM)
c1cc2cc(-c3nc(-c4ccc(OC5CCCC5)cc4)no3)ccc2[nH]1 | 8 µg/mL (≈ 23.2 µM) | – | –
O=[N+]([O-])c1ccc(-c2nc(-c3ccc(Oc4ccc(C(F)(F)F)cc4)cc3)no2)cc1 | > 128 µg/mL | – | –
O=[N+]([O-])c1c[nH]c(Nc2c[nH]nc2-c2nc(-c3ccc(Oc4ccc(C(F)(F)F)cc4)cc3)no2)c1 | 8 µg/mL (≈ 16.1 µM) | – | –
O=[N+]([O-])c1cc(Oc2ccc(C(F)(F)F)cc2)cnc1-c1noc(-c2ccc(O)cc2)n1 | > 128 µg/mL | – | –
CC(C)(C)OC(=O)N1CCC(Oc2ccc(-c3noc(-c4nc([N+](=O)[O-])c[nH]4)n3)cc2)CC1 | > 128 µg/mL | – | –
Nc1ccc(-c2nc(-c3ccc(Oc4ccc(C(F)(F)F)cc4)cc3)no2)cc1F | > 128 µg/mL | – | –
CCCOc1ccc(-c2noc(-c3ccc(O)cc3)n2)cc1 | > 128 µg/mL | – | –
Oc1ccc(-c2nc(-c3ccc(Oc4ccccc4)c(Br)c3)no2)cc1 | > 128 µg/mL | – | –
Oc1ccc(-c2nc(N3CCN(c4cccc(Cl)c4)CC3)no2)cc1 | > 128 µg/mL | – | –
Oc1ccc(-c2noc(-c3ccc(O)cc3)n2)cc1 | 128 µg/mL (≈ 503 µM) | – | –
CC(C)(C)OC(=O)N1CCC(Nc2c[nH]nc2-c2nc(-c3ccc(Oc4ccc(C(F)(F)F)cc4)cc3)no2)CC1 | > 128 µg/mL | – | –

Structure (SMILES) | MIC (Clostridioides difficile) | selectivity ratio [1] | IC50 (THP-1)
C#CCCOc1ccc(-c2noc(-c3ccc(O)cc3)n2)cc1 | > 128 µg/mL | – | –
FC(F)(F)c1ccc(Oc2ccc(-c3noc(-c4nc[nH]n4)n3)cc2)cc1 | > 128 µg/mL | – | –
c1cc2cc(-c3nc(-c4ccc5c(c4)CCO5)no3)ccc2[nH]1 | > 128 µg/mL | – | –
Oc1ccc(Oc2ccc(-c3noc(-c4ccc(O)cc4)n3)cc2)cc1 | 64 µg/mL (≈ 185 µM) | – | –
C[C@@H](NC(=O)OC(C)(C)C)C(=O)N[C@H](C)c1nc(-c2ccc(OC3CCCC3)cc2)no1 | > 128 µg/mL | – | –
FC(F)(F)c1ccc(Oc2ccc(-c3noc(-c4n[nH]cc4I)n3)cc2)cc1 | > 128 µg/mL | – | –
Clc1cccc(N2CCN(c3noc(-c4ccc5[nH]ccc5c4)n3)CC2)c1 | > 128 µg/mL | – | –
CC(C)(C)Oc1ccc(-c2noc(-c3ccc(O)cc3)n2)cc1 | > 128 µg/mL | – | –
FC(F)(F)c1ccc(Oc2ccc(-c3noc(-c4ccncc4)n3)cc2)cc1 | > 128 µg/mL | – | –
Oc1ccc(-c2nc(N3CCN(c4ccccc4)CC3)no2)cc1 | > 128 µg/mL | – | –
c1cc2cc(-c3nc(-c4ccc5c(c4)CCN5)no3)ccc2[nH]1 | > 128 µg/mL | – | –
COc1ccc(-c2nc(-c3ccc(Oc4ccc(C(F)(F)F)cc4)cc3)no2)cc1[N+](=O)[O-] | > 128 µg/mL | – | –
Oc1cc(-c2nc(-c3ccc(Oc4ccc(C(F)(F)F)cc4)cc3)no2)cc(F)c1O | > 128 µg/mL | – | –
Fc1ccccc1-c1noc(-c2ccc3[nH]ccc3c2)n1 | > 128 µg/mL | – | –
FC(F)(F)c1ccc(Oc2ccc(-c3noc(-c4cn[nH]c4)n3)cc2)cc1 | > 128 µg/mL | – | –
O=[N+]([O-])c1ccc(-c2nc(-c3ccc(OC4CCCC4)cc3)no2)cc1 | > 128 µg/mL | – | –
Nc1cc(-c2nc(-c3ccc(Oc4ccc(C(F)(F)F)cc4)cc3)no2)cnc1O | > 128 µg/mL | – | –
Cl.O=[N+]([O-])c1c[nH]c(-c2nc(-c3ccc(CN4CCCC4)cc3)no2)n1 | > 128 µg/mL | – | –
O=[N+]([O-])c1ccc(-c2noc(-c3ccc4[nH]ccc4c3)n2)cc1 | > 128 µg/mL | – | –
Cn1c(-c2nc(-c3ccc(OC4CCCC4)cc3)no2)cnc1[N+](=O)[O-] | 32 µg/mL (≈ 90.1 µM) | – | –
CN1CCN(c2ccc(-c3noc(-c4ccc(O)cc4)n3)cc2)CC1 | > 128 µg/mL | – | –
O=[N+]([O-])c1c[nH]nc1-c1nc(-c2ccc(Oc3ccccc3)cc2)no1 | > 128 µg/mL | – | –

Structure (SMILES) | MIC (Clostridioides difficile) | selectivity ratio [1] | IC50 (THP-1)
N#Cc1ccc(Oc2ccc(-c3noc(-c4ccc(O)cc4)n3)cc2)cc1 | > 128 µg/mL | – | –
FC(F)(F)c1ccc(Oc2ccc(-c3noc(-c4n[nH]cc4Nc4cc5ccccc5[nH]4)n3)cc2)cc1 | > 128 µg/mL | – | –
O=C(NNC(=O)c1ccc(OC2CCCC2)cc1)c1ccc(O)cc1 | > 128 µg/mL | – | –
c1cc(-c2noc(-c3ccc4c(c3)CCN4)n2)ccc1OC1CCCC1 | > 128 µg/mL | – | –
Nc1cc(Oc2ccccc2)ccc1-c1noc(-c2ccc(O)cc2)n1 | > 128 µg/mL | – | –
Oc1ccc(-c2nc(-c3ccc(N4CCOCC4)cc3)no2)cc1 | > 128 µg/mL | – | –
c1cc2cc(-c3nc(-c4ccc5occc5c4)no3)ccc2[nH]1 | > 128 µg/mL | – | –
Oc1ccc(/C=C/c2nc(-c3ccc(OC4CCCC4)cc3)no2)cc1 | 64 µg/mL (≈ 184 µM) | – | –
COc1ccc(-c2nc(-c3ccc(Oc4ccc(C(F)(F)F)cc4)cc3)no2)cc1OC | > 128 µg/mL | – | –
Oc1c(F)cc(-c2nc(-c3ccc(Oc4ccc(C(F)(F)F)cc4)cc3)no2)cc1F | – | 4 | 18 µg/mL (≈ 41.4 µM)
CCOc1ccc(-c2noc(-c3ccc(O)cc3)n2)cc1 | > 128 µg/mL | – | –
C[C@@H](N)c1nc(-c2ccc(OC3CCCC3)cc2)no1 | > 128 µg/mL | – | –
CN1CCC(Oc2ccc(-c3noc(-c4nc([N+](=O)[O-])c[nH]4)n3)cc2)C1.Cl (stereo not given) | > 128 µg/mL | – | –
C[C@@H](NC(=O)OC(C)(C)C)c1nc(-c2ccc(OC3CCCC3)cc2)no1 | > 128 µg/mL | – | –
Oc1ccc(-c2nnc(-c3ccc(OC4CCCC4)cc3)o2)cc1 | > 128 µg/mL | – | –
FC(F)(F)c1ccc(Oc2ccc(-c3noc(-c4n[nH]cc4NC4CCCC4)n3)cc2)cc1 | > 128 µg/mL | – | –
COC(OC)c1ccc(-c2noc(-c3ccc(O)cc3)n2)cc1 | > 128 µg/mL | – | –
Cl.Nc1nc(-c2ccc(OC3CCCC3)cc2)no1 | > 128 µg/mL | – | –
FC(F)(F)c1ccc(Oc2ccc(-c3noc(-c4cn[nH]n4)n3)cc2)cc1 | > 128 µg/mL | – | –
FC(F)(F)c1ccc(Oc2ccc(-c3noc(-c4n[nH]cc4Nc4c[nH]c5ncccc45)n3)cc2)cc1 | > 128 µg/mL | – | –
